Reference: US20090054523A1, “Use of a Fatty Acid Composition Containing DHA for the Production of a Medical Product or a Food Stuff for the Treatment of Amyloidos-Related Diseases” (priority 2005, published 2009)

Tested on: secondary amyloidosis (spleen amyloid)
Assay: Secondary amyloidosis induced by silver nitrate injections, spleen amyloid by Congo red
Assay type: in vivo, Female NMRI mice
Procedure: Female NMRI mice were injected once a week subcutaneously with 0.3 ml of a 1% silver nitrate solution for 25 weeks. The animals were fed high fat diet containing mainly sunflower oil with a fat content of 55% of total daily calories. Three groups each consisting of 6 animals were given different omega-3 fatty acid concentrates (intervention group) or standard olive oil containing about 78% oleic acid (oleic acid group). In the intervention groups 15% of the fat content was exchanged with either 97% docosahexaenoic acid (DHA group) or EPAX1050TG containing 10% of EPA and 50% of DHA (EPAX group).
After study completion the mice were sacrificed and spleens were collected.
The air-dried smear material and 10-μm-thick sections from the formalin fixed material were stained for amyloid with specific dye alkaline Congo red. The slides were examined in cross-polarized light for bright green birefringence, specific for amyloid. Evaluation of the material was performed on coded slides.

## CC/C=C\C/C=C\C/C=C\C/C=C\C/C=C\C/C=C\CCC(=O)O [DHA, (all-Z omega-3)-4,7,10,13,16,19-docosahexaenoic acid]
25 weeks of weekly s.c. silver nitrate, 15% of fat content exchanged
  amyloid appeared in the spleen: one out of six
After 25 weeks of treatment
  animals that developed amyloid after silver nitrate injections: one
spleen, 25 weeks of weekly s.c. silver nitrate, 15% of tot. fat of high fat diet exchanged
  animals with amyloid: 1/6 animals
